Tested on: AVEFA (Avena fatua, wild oat)
Assay: greenhouse experiment: herbicidal action, scale from 0 to 100, synergism by Colby's equation
Assay type: in vivo
Conditions: scale 0 to 100, test period 20 days
Description: However, the weed control afforded by the compounds, mixtures or compositions is not limited to these species. The analysis of synergism or antagonism between the mixtures or compositions is determined using Colby's equation.
Synergism can be described as an interaction where the combined effect of two or more compounds is greater than the sum of the individual effects of each of the compounds. The presence of a synergistic effect in terms of percent control, between two mixing partners (X and Y) can be calculated using the Colby equation (Colby, S. R., 1967, Calculating Synergistic and Antagonistic Responses in Herbicide Combinations, Weeds, 15, 21-22):
When the observed combined control effect is greater than the expected (calculated) combined control effect (E), then the combined effect is synergistic.
The culture containers used were plastic flowerpots containing loamy sand with approximately 3.0% of humus as the substrate. The seeds of the test plants were sown separately for each species. For pre-emergence treatment, the active ingredients, which had been suspended or emulsified in water, were applied directly after sowing by means of finely distributing nozzles. […] During this time, the plants were tended, and their response to the individual treatments was evaluated. […]

CS(=O)(=O)c1cc(C(F)(F)F)ccc1C(=O)c1cnoc1C1CC1 [Isoxaflutole, isoxaflutole]
Herbicidal action against AVEFA, Found (Isoxaflutole 12.5 g/ha alone): 0 | Herbicidal action against AVEFA, Found (Isoxaflutole 25 g/ha alone): 0
